Values quoted from earlier work, collected in patent publication US20180256534A1, “KETAMINE AND […] 450 INHIBITOR COMBINATIONS” (SEQUOIA PHARMACEUTICALS, INC., priority 2015, published 2018).

What was measured:
[1] = tested on: patients with major depressive disorders

Compound: CNC1(c2ccccc2Cl)CCCCC1=O (centres unmarked) [ketamine]
- onset of rapid antidepressant effect [1]: two
- serum concentration at which psychotomimetic symptoms appear: about 50 ng/ml
